Assays:
Type in all cases: functional
HOP-62 = experiment: Growth inhibition of human HOP62 cells after 48 hrs by sulforhodamine B assay; conditions: HOP-62, 48 h
A498 = experiment: Growth inhibition of human A498 cells after 48 hrs by sulforhodamine B assay; conditions: A498, 48 h
SNB-19 = experiment: Growth inhibition of human SNB19 cells after 48 hrs by sulforhodamine B assay; conditions: SNB-19, 48 h
MDA-MB-468 = experiment: Growth inhibition of human MDA-MB-468 cells after 48 hrs by sulforhodamine B assay; conditions: MDA-MB-468, 48 h
NCI-H226 = experiment: Growth inhibition of human NCI-H226 cells after 48 hrs by sulforhodamine B assay; conditions: NCI-H226, 48 h
Paracentrotus lividus [1] = experiment: Microtubule destabilizing activity in sea urchin free-swimming blastula assessed as embryo spinning treated at 9 to 10 hrs post-fertilization measured after 0.15 to 15 hrs
[2] = Growth inhibition of human UO31 cells after 48 hrs by sulforhodamine B assay; conditions: UO-31, 48 h
SNB-75 = experiment: Growth inhibition of human SNB75 cells after 48 hrs by sulforhodamine B assay; conditions: SNB-75, 48 h
COLO 205 = experiment: Growth inhibition of human COLO205 cells after 48 hrs by sulforhodamine B assay; conditions: COLO 205, 48 h
NCI-H23 = experiment: Growth inhibition of human NCI-H23 cells after 48 hrs by sulforhodamine B assay; conditions: NCI-H23, 48 h
[3] = Growth inhibition of human OVCAR5 cells after 48 hrs by sulforhodamine B assay; conditions: OVCAR-5, 48 h
[4] = Growth inhibition of human SF539 cells after 48 hrs by sulforhodamine B assay; conditions: SF-539, 48 h
NCI-H322M = experiment: Growth inhibition of human NCI-H322M cells after 48 hrs by sulforhodamine B assay
SR = experiment: Growth inhibition of human SR cells after 48 hrs by sulforhodamine B assay
MDA-MB-231 = experiment: Growth inhibition of human MDA-MB-231 cells after 48 hrs by sulforhodamine B assay; conditions: MDA-MB-231, 48 h
Paracentrotus lividus [5] = experiment: Antimitotic activity in sea urchin fertilized egg assessed as cleavage alteration treated at 8 to 20 mins post-fertilization measured at 2.5 to 5.5 hrs post-fertilization
CCRF-CEM = experiment: Growth inhibition of human CCRF-CEM cells after 48 hrs by sulforhodamine B assay
SK-MEL-5 = experiment: Growth inhibition of human SK-MEL-5 cells after 48 hrs by sulforhodamine B assay; conditions: SK-MEL-5, 48 h
M14 = experiment: Growth inhibition of human M14 cells after 48 hrs by sulforhodamine B assay; conditions: M14, 48 h
HCT-15 = experiment: Growth inhibition of human HCT15 cells after 48 hrs by sulforhodamine B assay; conditions: HCT-15, 48 h
[6] = Growth inhibition of human UACC257 cells after 48 hrs by sulforhodamine B assay; conditions: UACC-257, 48 h
SK-OV-3 = experiment: Growth inhibition of human SKOV3 cells after 48 hrs by sulforhodamine B assay; conditions: SK-OV-3, 48 h
TK-10 = experiment: Growth inhibition of human TK10 cells after 48 hrs by sulforhodamine B assay; conditions: TK-10, 48 h
UACC-62 = experiment: Growth inhibition of human UACC62 cells after 48 hrs by sulforhodamine B assay; conditions: UACC-62, 48 h
RPMI-8226 = experiment: Growth inhibition of human RPMI8226 cells after 48 hrs by sulforhodamine B assay; conditions: RPMI-8226, 48 h
A549 = experiment: Growth inhibition of human A549/ATCC cells after 48 hrs by sulforhodamine B assay; conditions: A549, 48 h
CAKI-1 = experiment: Growth inhibition of human CAKI-1 cells after 48 hrs by sulforhodamine B assay; conditions: CAKI-1, 48 h
NCI-H522 = experiment: Growth inhibition of human NCI-H522 cells after 48 hrs by sulforhodamine B assay; conditions: NCI-H522, 48 h
[7] = Growth inhibition of human Hs 578T cells after 48 hrs by sulforhodamine B assay
Malme-3M = experiment: Growth inhibition of human MALME-3M cells after 48 hrs by sulforhodamine B assay
HCT-116 = experiment: Growth inhibition of human HCT116 cells after 48 hrs by sulforhodamine B assay; conditions: HCT-116, 48 h
ACHN = experiment: Growth inhibition of human ACHN cells after 48 hrs by sulforhodamine B assay
OVCAR-8 = experiment: Growth inhibition of human OVCAR8 cells after 48 hrs by sulforhodamine B assay; conditions: OVCAR-8, 48 h
DU-145 = experiment: Growth inhibition of human DU145 cells after 48 hrs by sulforhodamine B assay; conditions: DU-145, 48 h
IGROV-1 = experiment: Growth inhibition of human IGROV1 cells after 48 hrs by sulforhodamine B assay; conditions: IGROV-1, 48 h
K562 = experiment: Growth inhibition of human K562 cells after 48 hrs by sulforhodamine B assay; conditions: K562, 48 h
[8] = Growth inhibition of human OVCAR4 cells after 48 hrs by sulforhodamine B assay; conditions: OVCAR-4, 48 h
BT-549 = experiment: Growth inhibition of human BT549 cells after 48 hrs by sulforhodamine B assay; conditions: BT-549, 48 h
MCF7 = experiment: Growth inhibition of human MCF7 cells after 48 hrs by sulforhodamine B assay; conditions: MCF7, 48 h
MDA-MB-435 = experiment: Growth inhibition of human MDA-MB-435 cells after 48 hrs by sulforhodamine B assay; conditions: MDA-MB-435, 48 h
[9] = Growth inhibition of human HCC2998 cells after 48 hrs by sulforhodamine B assay; conditions: HCC 2998, 48 h
MOLT-4 = experiment: Growth inhibition of human MOLT4 cells after 48 hrs by sulforhodamine B assay; conditions: MOLT-4, 48 h
SF-268 = experiment: Growth inhibition of human SF268 cells after 48 hrs by sulforhodamine B assay; conditions: SF-268, 48 h
NCI-H460 = experiment: Growth inhibition of human NCI-H460 cells after 48 hrs by sulforhodamine B assay; conditions: NCI-H460, 48 h
KM12 = experiment: Growth inhibition of human KM12 cells after 48 hrs by sulforhodamine B assay; conditions: KM12, 48 h
[10] = Growth inhibition of human NCI-ADR-RES cells after 48 hrs by sulforhodamine B assay
HT-29 = experiment: Growth inhibition of human HT-29 cells after 48 hrs by sulforhodamine B assay; conditions: HT-29, 48 h
HL-60(TB) = experiment: Growth inhibition of human HL-60(TB) cells after 48 hrs by sulforhodamine B assay; conditions: HL-60, 48 h
Paracentrotus lividus [11] = experiment: Antimitotic activity in sea urchin fertilized egg assessed as cleavage arrest treated at 8 to 20 mins post-fertilization measured at 2.5 to 5.5 hrs post-fertilization
SN12C = experiment: Growth inhibition of human SN12C cells after 48 hrs by sulforhodamine B assay
SK-MEL-28 = experiment: Growth inhibition of human SK-MEL-28 cells after 48 hrs by sulforhodamine B assay; conditions: SK-MEL-28, 48 h
786-0 = experiment: Growth inhibition of human 786-0 cells after 48 hrs by sulforhodamine B assay; conditions: 786-0, 48 h
SW-620 = experiment: Growth inhibition of human SW620 cells after 48 hrs by sulforhodamine B assay; conditions: SW-620, 48 h
T47D = experiment: Growth inhibition of human T47D cells after 48 hrs by sulforhodamine B assay
[12] = Growth inhibition of human RXF393 cells after 48 hrs by sulforhodamine B assay; conditions: RXF 393, 48 h
PC-3 = experiment: Growth inhibition of human PC3 cells after 48 hrs by sulforhodamine B assay; conditions: PC-3, 48 h
OVCAR-3 = experiment: Growth inhibition of human OVCAR3 cells after 48 hrs by sulforhodamine B assay; conditions: OVCAR-3, 48 h
SF-295 = experiment: Growth inhibition of human SF295 cells after 48 hrs by sulforhodamine B assay; conditions: SF-295, 48 h
[13] = Growth inhibition of human EKVX cells after 48 hrs by sulforhodamine B assay
LOX IMVI = experiment: Growth inhibition of human LOXIMVI cells after 48 hrs by sulforhodamine B assay
SK-MEL-2 = experiment: Growth inhibition of human SK-MEL-2 cells after 48 hrs by sulforhodamine B assay; conditions: SK-MEL-2, 48 h
U-251 = experiment: Growth inhibition of human U251 cells after 48 hrs by sulforhodamine B assay; conditions: U-251, 48 h

COc1ccc(-c2noc(N)c2-c2cc(OC)c3c(c2)OCO3)cc1
GI50 (HOP-62): 2850 nM
GI50 (A498): 1310 nM
GI50 (SNB-19): 20400 nM
GI50 (MDA-MB-468): 9660 nM
GI50 (NCI-H226): 13700 nM
EC (Paracentrotus lividus [1]): >5 µM
GI50 [2]: 5900 nM
GI50 (SNB-75): 1810 nM
GI50 (COLO 205): 1850 nM
GI50 (NCI-H23): 2820 nM
GI50 [3]: 5010 nM
GI50 [4]: 1690 nM
GI50 (NCI-H322M): 6660 nM
GI50 (SR): 454 nM
GI50 (MDA-MB-231): 2350 nM
EC (Paracentrotus lividus [5]): 0.2 µM
GI50 (CCRF-CEM): 1020 nM
GI50 (SK-MEL-5): 3360 nM
GI50 (M14): 1300 nM
GI50 (HCT-15): 620 nM
GI50 [6]: 6680 nM
GI50 (SK-OV-3): 3410 nM
GI50 (TK-10): 6360 nM
GI50 (UACC-62): 5100 nM
GI50 (RPMI-8226): 2910 nM
GI50 (A549): 2730 nM
GI50 (CAKI-1): 2780 nM
GI50 (NCI-H522): 1020 nM
GI50 [7]: 2810 nM
GI50 (Malme-3M): 9660 nM
GI50 (HCT-116): 2440 nM
GI50 (ACHN): 6210 nM
GI50 (OVCAR-8): 3620 nM
GI50 (DU-145): 3110 nM
GI50 (IGROV-1): 4860 nM
GI50 (K562): 404 nM
GI50 [8]: 22800 nM
GI50 (BT-549): 3400 nM
GI50 (MCF7): 798 nM
GI50 (MDA-MB-435): 237 nM
GI50 [9]: 1960 nM
GI50 (MOLT-4): 1280 nM
GI50 (SF-268): 5000 nM
GI50 (NCI-H460): 2870 nM
GI50 (KM12): 1580 nM
GI50 [10]: 563 nM
GI50 (HT-29): 1330 nM
GI50 (HL-60(TB)): 1290 nM
EC (Paracentrotus lividus [11]): 2 µM
GI50 (SN12C): 4100 nM
GI50 (SK-MEL-28): 6790 nM
GI50 (786-0): 5460 nM
GI50 (SW-620): 726 nM
GI50 (T47D): 2750 nM
GI50 [12]: 2360 nM
GI50 (PC-3): 3290 nM
GI50 (OVCAR-3): 2630 nM
GI50 (SF-295): 2800 nM

COc1ccc(-c2c(-c3cc(OC)c4c(c3)OCO4)noc2N)cc1
GI50 (HOP-62): 30.2 nM
GI50 (A498): 22 nM
GI50 (SNB-19): 65.8 nM
GI50 (MDA-MB-468): 18.7 nM
GI50 (NCI-H226): 121 nM
EC (Paracentrotus lividus [1]): 0.05 µM
GI50 [2]: 82.2 nM
GI50 (SNB-75): 33.9 nM
GI50 (COLO 205): 34.1 nM
GI50 (NCI-H23): 37.8 nM
GI50 [4]: 38.1 nM
GI50 (SR): < 10 nM
GI50 (MDA-MB-231): 124 nM
EC (Paracentrotus lividus [5]): 0.0005 µM
GI50 (CCRF-CEM): 36.3 nM
GI50 (SK-MEL-5): 29.8 nM
GI50 (M14): 32.3 nM
GI50 (HCT-15): 48.2 nM
GI50 (SK-OV-3): 31.8 nM
GI50 [13]: 10700 nM
GI50 (UACC-62): 59.7 nM
GI50 (RPMI-8226): 49.9 nM
GI50 (A549): 59.6 nM
GI50 (NCI-H522): < 10 nM
GI50 [7]: 32.4 nM
GI50 (HCT-116): 46.3 nM
GI50 (OVCAR-8): 58.5 nM
GI50 (DU-145): 47.2 nM
GI50 (IGROV-1): 99.7 nM
GI50 (K562): 19.3 nM
GI50 [8]: 114 nM
GI50 (BT-549): 3920 nM
GI50 (MCF7): 31.5 nM
GI50 (MDA-MB-435): < 10 nM
GI50 [9]: 118 nM
GI50 (MOLT-4): 71.4 nM
GI50 (SF-268): 148 nM
GI50 (NCI-H460): 35.2 nM
GI50 (KM12): 18.1 nM
GI50 [10]: 19.1 nM
GI50 (HT-29): 34.6 nM
GI50 (LOX IMVI): 57.9 nM
GI50 (HL-60(TB)): 35.1 nM
EC (Paracentrotus lividus [11]): 0.002 µM
GI50 (SN12C): 217 nM
GI50 (SK-MEL-28): 13.6 nM
GI50 (786-0): 73.5 nM
GI50 (SK-MEL-2): 25.9 nM
GI50 (SW-620): 29.4 nM
GI50 (T47D): 39.4 nM
GI50 [12]: 22.3 nM
GI50 (PC-3): 44 nM
GI50 (OVCAR-3): 21.9 nM
GI50 (U-251): 30.8 nM
GI50 (SF-295): 22.8 nM

— ChEMBL document CHEMBL3112491, “3-(5-)-Amino-o-diarylisoxazoles: regioselective synthesis and antitubulin activity” (2014)
